# Test results: patent US12514251B2, “Fused heterocyclic compounds and their use as pest control agents” (priority 2020, dated 2026)
# Tests used:
# Assay type in all cases: in vivo
# [1] = system: Spodoptera litura; test: Spodoptera litura, diet incorporation method; conditions: third instar larvae, 96 h after release, dead + moribund vs untreated control, read-out: percent mortality
# Procedure: (§1) The diet incorporation method was used, in which the required quantity of the test compound was weighed and dissolved in a tube containing solvent solution. The tube was put on a vortex at 2000 rpm for 90 min for proper mixing. Semi-synthetic diet was incorporated into this solution when the temperature was approximately 50° C. in the bioassay containers. Compound and diet were stirred thoroughly for proper mixing and allowed to cool for 30 min. The solidified diet was cut into equal pieces, and then each piece was transferred into one cell of a bio-assay tray. A single starved third instar larva was released into each of the cells of the bioassay trays and the tray was covered with the lid. The bio-assay trays were then kept under laboratory conditions at a temperature of 25° C. and a relative humidity of 70%. Observations on dead, moribund and alive larvae were recorded 96 h after the release of larvae. Percent mortality was calculated by combining dead and moribund larvae and comparing the result to the one of the untreated control.
# [2] = system: Plutella xylostella; test: Plutella xylostella, leaf dip method; conditions: foliar, cabbage leaf dip, second instar larvae, 72 h after release, dead + moribund vs untreated control, read-out: percent mortality
# Procedure, shortened: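 Cabbage leaves were dipped for 10 s in compound diluted with 0.01% Triton-X, shade dried and offered singly to second instar larvae. Trays were held at 25° C. and 70% relative humidity. Dead plus moribund larvae were scored at 72 h, and percent mortality was expressed relative to untreated control.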
# [3] = system: Nilaparvata lugens; test: Nilaparvata lugens, seedling dip method; conditions: paddy seedling dip, third instar nymphs, 72 h after release, dead + moribund vs untreated control, read-out: percent mortality
# Procedure: The seedling dip method was used for testing, wherein the required quantity of the compound was weighed and dissolved in a tube containing solvent solution. The tube was put on a vortex at 2000 rpm for 90 min for proper mixing, then diluted with 0.01% Triton-X solution to the desired test concentration.
# Paddy seedlings were dipped in the compound solution for 10 seconds, shade dried for 20 min and then the seedlings were placed in glass test tubes with the roots kept in water. 15 third instar nymphs were released into each test tube and the tubes were kept in a plant growth chamber at a temperature of 25° C. and relative humidity of 75%. Observations on dead, moribund and alive nymphs were recorded 72 h after the release. Percent mortality was calculated by combining dead and moribund nymphs and comparing the result to the one of the untreated control.
# [4] = system: Myzus persicae; test: Myzus persicae, leaf dip method; conditions: foliar, capsicum leaf dip, third instar nymphs, 72 h after release, dead + moribund vs untreated control, read-out: percent mortality
# Procedure: The leaf dip method was used for testing, wherein the required quantity of the compound was weighed and dissolved in a tube containing solvent solution. The tube was put on a vortex at 2000 rpm for 90 min for proper mixing, then diluted with 0.01% Triton-X solution to the desired test concentration. Capsicum leaves were dipped in the compound solution for 10 seconds, shade dried for 20 min and then placed, with the abaxial side of the leaf up, in single cells of a bio-assay tray containing 4 ml of a 1% agar-agar solution. Known numbers of third instar nymphs, collected in petri plates, were released into the cell with the treated leaf and the cell was covered with a perforated lid for better aeration. The trays were kept in a plant growth chamber at a temperature of 25° C. and a relative humidity of 70%. Observations on dead, moribund and alive nymphs were recorded 72 h after the release. Percent mortality was calculated by combining dead and moribund nymphs and comparing the result with the one of the untreated control.
# [5] = system: Helicoverpa armigera; test: Helicoverpa armigera, diet incorporation method; conditions: third instar larvae, 96 h after release, dead + moribund vs untreated control, read-out: percent mortality
# Procedure: as §1, with “covered with a lid. The” for “covered with the lid. The”, “release of the larvae. Percent” for “release of larvae. Percent”
Compound,mortality at 300 ppm [1] [%],mortality at 300 ppm [2] [%],mortality at 300 ppm [3] [%],mortality at 300 ppm [4] [%],mortality at 300 ppm [5] [%]
"CCS(=O)(=O)c1ccc(N(C)C2CC2)nc1-c1ccn2nc(C(F)(F)F)cc2n1 [Compound 168, N-cyclopropyl-5-(ethylsulfonyl)-N-methyl-6-(2-(trifluoromethyl)pyrazolo[1,5-a]pyrimidin-5-yl)pyridin-2-amine]",≥ 70,≥ 70,≥ 70,–,–
"CCSc1cc(Br)cnc1-c1ccnc2cc(C(F)(F)F)nn12 [Compound 11, 7-(5-bromo-3-(ethylthio)pyridin-2-yl)-2-(trifluoromethyl)pyrazolo[1,5-a]pyrimidine]",–,–,–,≥ 70,–
"CCS(=O)(=O)c1cc(O)cnc1-c1ccn2nc(C(F)(F)F)nc2n1 [Compound 109, 5-(ethylsulfonyl)-6-(2-(trifluoromethyl)-[1,2,4]triazolo[1,5-a]pyrimidin-5-yl)pyridin-3-ol]",–,–,–,≥ 70,–
"CCS(=O)(=O)c1cc(-c2ccn3nc(C(F)(F)F)cc3n2)cnc1-n1nccn1 [Compound 39, 5-(5-(ethylsulfonyl)-6-(2H-1,2,3-triazol-2-yl)pyridin-3-yl)-2-(trifluoromethyl)pyrazolo[1,5-a]pyrimidine]",≥ 70,≥ 70,–,–,≥ 70
"CCS(=O)(=O)c1cc(-c2ccc(F)c(Cl)c2)cnc1-c1ccn2nc(C(F)(F)F)cc2n1 [Compound 127, 5-(5-(3-chloro-4-fluorophenyl)-3-(ethylsulfonyl)pyridin-2-yl)-2-(trifluoromethyl)pyrazolo[1,5-a]pyrimidine]",≥ 70,≥ 70,–,–,≥ 70
"CCS(=O)(=O)c1cc(-n2cnc(C)n2)cnc1-c1ncc2nc(C(F)(F)F)n(C)c2n1 [Compound 130, 2-(3-(ethylsulfonyl)-5-(3-methyl-1H-1,2,4-triazol-1-yl)pyridin-2-yl)-9-methyl-8-(trifluoromethyl)-9H-purine]",–,–,≥ 70,–,–
"CCS(=O)(=O)c1cc(Br)cnc1-c1ccn2nc(C(F)(F)F)cc2n1 [Compound 29, 5-(5-bromo-3-(ethylsulfonyl)pyridin-2-yl)-2-(trifluoromethyl)pyrazolo[1,5-a]pyrimidine]",≥ 70,≥ 70,–,–,≥ 70
"CCS(=O)(=O)c1cc(-c2ccc(OC(F)(F)C(F)F)cc2)cnc1-c1ccn2nc(C(F)(F)F)cc2n1 [Compound 96, 5-(3-(ethylsulfonyl)-5-(4-(1,1,2,2-tetrafluoroethoxy)phenyl)pyridin-2-yl)-2-(trifluoromethyl)pyrazolo[1,5-a]pyrimidine]",≥ 70,≥ 70,–,–,≥ 70
"CCS(=O)(=O)c1cc(C2CC2)cnc1-c1ccn2nc(C(F)(F)F)cc2n1 [Compound 136, 5-(5-cyclopropyl-3-(ethylsulfonyl)pyridin-2-yl)-2-(trifluoromethyl)pyrazolo[1,5-a]pyrimidine]",≥ 70,≥ 70,–,–,≥ 70
"CCS(=O)(=O)c1cc(-c2cc(F)cc(Cl)c2)cnc1-c1ccn2nc(C(F)(F)F)cc2n1 [Compound 111, 5-(5-(3-chloro-5-fluorophenyl)-3-(ethylsulfonyl)pyridin-2-yl)-2-(trifluoromethyl)pyrazolo[1,5-a]pyrimidine]",≥ 70,≥ 70,–,–,≥ 70
"CCS(=O)(=O)c1cc(-c2cccc(C(F)(F)F)c2)cnc1-c1ccn2nc(C(F)(F)F)cc2n1 [Compound 156, 5-(3-(ethylsulfonyl)-5-(3-(trifluoromethyl)phenyl)pyridin-2-yl)-2-(trifluoromethyl)pyrazolo[1,5-a]pyrimidine]",≥ 70,≥ 70,–,–,≥ 70
"CCS(=O)(=O)c1cccnc1-c1ccn2nc(C(F)(F)F)cc2n1 [Compound 160, 5-(3-(ethylsulfonyl)pyridin-2-yl)-2-(trifluoromethyl)pyrazolo[1,5-a]pyrimidine]",–,≥ 70,–,≥ 70,≥ 70
"CCCNc1ccc(S(=O)(=O)CC)c(-c2ccn3nc(C(F)(F)F)cc3n2)n1 [Compound 244, 5-(ethylsulfonyl)-N-propyl-6-(2-(trifluoromethyl)pyrazolo[1,5-a]pyrimidin-5-yl)pyridin-2-amine]",–,≥ 70,–,≥ 70,–
"CCS(=O)(=O)c1cc(-c2ccc(OC(F)(F)F)cc2)cnc1-c1ccn2nc(C(F)(F)F)cc2n1 [Compound 66, 5-(3-(ethylsulfonyl)-5-(4-(trifluoromethoxy)phenyl)pyridin-2-yl)-2-(trifluoromethyl)pyrazolo[1,5-a]pyrimidine]",≥ 70,≥ 70,–,–,≥ 70
"CCS(=O)(=O)c1cc(-c2ccc(OC(F)(F)F)cc2)cnc1-c1ccn2nc(C(F)(F)F)nc2n1 [Compound 100, 5-(3-(ethylsulfonyl)-5-(4-(trifluoromethoxy)phenyl)pyridin-2-yl)-2-(trifluoromethyl)-[1,2,4]triazolo[1,5-a]pyrimidine]",≥ 70,≥ 70,–,–,≥ 70
"CCS(=O)(=O)c1ccc(N)nc1-c1ccn2nc(C(F)(F)F)cc2n1 [Compound 174, 5-(ethylsulfonyl)-6-(2-(trifluoromethyl)pyrazolo[1,5-a]pyrimidin-5-yl)pyridin-2-amine]",–,≥ 70,≥ 70,–,–
"CCS(=O)(=O)c1ccc(-n2nccn2)nc1-c1ccn2nc(C(F)(F)F)cc2n1 [Compound 41, 5-(3-(ethylsulfonyl)-6-(2H-1,2,3-triazol-2-yl)pyridin-2-yl)-2-(trifluoromethyl)pyrazolo[1,5-a]pyrimidine]",–,≥ 70,≥ 70,–,≥ 70
"CCS(=O)(=O)c1ccc(N(C)C)nc1-c1ccn2nc(C(F)(F)F)cc2n1 [Compound 166, 5-(ethylsulfonyl)-N,N-dimethyl-6-(2-(trifluoromethyl)pyrazolo[1,5-a]pyrimidin-5-yl)pyridin-2-amine]",–,≥ 70,≥ 70,–,≥ 70
"CCS(=O)(=O)c1cc(-c2ccc(Cl)c(F)c2)cnc1-c1ccn2nc(C(F)(F)F)cc2n1 [Compound 126, 5-(5-(4-chloro-3-fluorophenyl)-3-(ethylsulfonyl)pyridin-2-yl)-2-(trifluoromethyl)pyrazolo[1,5-a]pyrimidine]",≥ 70,≥ 70,–,–,≥ 70
"CCS(=O)(=O)c1cc(-c2ccc(F)cc2)cnc1-c1ccn2nc(C(F)(F)F)cc2n1 [Compound 94, 5-(3-(ethylsulfonyl)-5-(4-fluorophenyl)pyridin-2-yl)-2-(trifluoromethyl)pyrazolo[1,5-a]pyrimidine]",≥ 70,≥ 70,–,–,≥ 70
"CCS(=O)(=O)c1cc(OC(C)(C)C(N)=O)cnc1-c1ccn2nc(C(F)(F)F)cc2n1 [Compound 220, 2-((5-(ethylsulfonyl)-6-(2-(trifluoromethyl)pyrazolo[1,5-a]pyrimidin-5-yl)pyridin-3-yl)oxy)-2-methylpropanamide]",–,≥ 70,–,≥ 70,–
"CCS(=O)(=O)c1cc(-n2nc(C(F)(F)F)cc2C)cnc1-c1ccn2nc(C(F)(F)F)cc2n1 [Compound 38, 5-(3-(ethylsulfonyl)-5-(5-methyl-3-(trifluoromethyl)-1H-pyrazol-1-yl)pyridin-2-yl)-2-(trifluoromethyl)pyrazolo[1,5-a]pyrimidine]",≥ 70,≥ 70,–,–,≥ 70
